Tests used:
Test in all cases: relative viability (nuclei count vs DMSO), 5 days (fraction); higher = more cells survive
NCI-H1355 = system: NCI-H1355
Summary of the method: (§1)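 Relative viability equals treated-well nuclei counts divided by vehicle-well nuclei counts. Counts came from 4× images of lung cancer cell lines grown in 1536-well plates for 5 days after pin-tool dosing on the day after seeding. Dosing used one drug alone or a fixed anchor-drug dose plus five library-drug doses (not always all listed) in √10 steps, and values are medians of duplicate plates.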

BEN = system: BEN
Summary of the method: as §1

NCI-H441 = system: NCI-H441
Summary of the method: as §1

NCI-H1563 = system: NCI-H1563
Summary of the method: as §1

NCI-H1975 = system: NCI-H1975
Summary of the method: as §1

NCI-H1437 = system: NCI-H1437
Summary of the method: as §1

NCI-H1650 = system: NCI-H1650
Summary of the method: as §1

CAL-12T = system: CAL-12T
Summary of the method: as §1

NCI-H1734 = system: NCI-H1734
Summary of the method: as §1

HCC-366 = system: HCC-366
Summary of the method: as §1

NCI-H1651 = system: NCI-H1651
Summary of the method: as §1

EKVX = system: EKVX
Summary of the method: as §1

NCI-H2085 = system: NCI-H2085
Summary of the method: as §1

LU99A = system: LU99A
Summary of the method: as §1

NCI-H2023 = system: NCI-H2023
Summary of the method: as §1

HCC-44 = system: HCC-44
Summary of the method: as §1

NCI-H838 = system: NCI-H838
Summary of the method: as §1

NCI-H1755 = system: NCI-H1755
Summary of the method: as §1

LOU-NH91 = system: LOU-NH91
Summary of the method: as §1

NCI-H460 = system: NCI-H460
Summary of the method: as §1

## NC(=O)Nc1cc(-c2cccc(F)c2)sc1C(=O)N[C@H]1CCCNC1 [AZD7762] + CC(C)C[C@H](NC(=O)[C@H](Cc1ccccc1)NC(=O)c1cnccn1)B(O)O [Bortezomib] (partner 0.002 µM)
NCI-H1355; first compound 0.01 µM
  relative viability: 1.17
NCI-H1355; first compound 0.03162 µM
  relative viability: 1.23
NCI-H1355; first compound 0.1 µM
  relative viability: 1.21
NCI-H1355; first compound 0.3162 µM
  relative viability: 1.27
NCI-H1355; first compound 1 µM
  relative viability: 1.19
BEN; first compound 0.01 µM
  relative viability: 0.902
BEN; first compound 0.03162 µM
  relative viability: 0.758
BEN; first compound 0.1 µM
  relative viability: 0.888
BEN; first compound 0.3162 µM
  relative viability: 0.821
BEN; first compound 1 µM
  relative viability: 0.636
NCI-H441; first compound 0.01 µM
  relative viability: 1.13
NCI-H441; first compound 0.03162 µM
  relative viability: 0.972
NCI-H441; first compound 0.1 µM
  relative viability: 0.313
NCI-H441; first compound 0.3162 µM
  relative viability: 0.456
NCI-H441; first compound 1 µM
  relative viability: 0.548
NCI-H1563; first compound 0.01 µM
  relative viability: 0.843
NCI-H1563; first compound 0.03162 µM
  relative viability: 0.963
NCI-H1563; first compound 0.1 µM
  relative viability: 1.05
NCI-H1563; first compound 0.3162 µM
  relative viability: 0.976
NCI-H1563; first compound 1 µM
  relative viability: 0.746
NCI-H1975; first compound 0.01 µM
  relative viability: 0.468
NCI-H1975; first compound 0.03162 µM
  relative viability: 0.44
NCI-H1975; first compound 0.1 µM
  relative viability: 0.417
NCI-H1975; first compound 0.3162 µM
  relative viability: 0.399
NCI-H1975; first compound 1 µM
  relative viability: 0.272
NCI-H1437; first compound 0.01 µM
  relative viability: 0.407
NCI-H1437; first compound 0.03162 µM
  relative viability: 0.4
NCI-H1437; first compound 0.1 µM
  relative viability: 0.56
NCI-H1437; first compound 0.3162 µM
  relative viability: 0.58
NCI-H1437; first compound 1 µM
  relative viability: 0.433
NCI-H1650; first compound 0.01 µM
  relative viability: 0.217
NCI-H1650; first compound 0.03162 µM
  relative viability: 0.205
NCI-H1650; first compound 0.1 µM
  relative viability: 0.211
NCI-H1650; first compound 0.3162 µM
  relative viability: 0.203
NCI-H1650; first compound 1 µM
  relative viability: 0.204
CAL-12T; first compound 0.01 µM
  relative viability: 0.96
CAL-12T; first compound 0.03162 µM
  relative viability: 1.06
CAL-12T; first compound 0.1 µM
  relative viability: 0.931
CAL-12T; first compound 0.3162 µM
  relative viability: 0.641
CAL-12T; first compound 1 µM
  relative viability: 0.23
NCI-H1734; first compound 0.01 µM
  relative viability: 0.912
NCI-H1734; first compound 0.03162 µM
  relative viability: 1.04
NCI-H1734; first compound 0.1 µM
  relative viability: 0.963
NCI-H1734; first compound 0.3162 µM
  relative viability: 0.821
NCI-H1734; first compound 1 µM
  relative viability: 0.527
HCC-366; first compound 0.01 µM
  relative viability: 1.1
HCC-366; first compound 0.03162 µM
  relative viability: 1.04
HCC-366; first compound 0.1 µM
  relative viability: 1.03
HCC-366; first compound 0.3162 µM
  relative viability: 0.62
HCC-366; first compound 1 µM
  relative viability: 0.0941
NCI-H1651; first compound 0.01 µM
  relative viability: 0.945
NCI-H1651; first compound 0.03162 µM
  relative viability: 0.932
NCI-H1651; first compound 0.1 µM
  relative viability: 1.01
NCI-H1651; first compound 0.3162 µM
  relative viability: 0.963
NCI-H1651; first compound 1 µM
  relative viability: 0.686
EKVX; first compound 0.01 µM
  relative viability: 0.996
EKVX; first compound 0.03162 µM
  relative viability: 1.04
EKVX; first compound 0.1 µM
  relative viability: 0.974
EKVX; first compound 0.3162 µM
  relative viability: 0.912
EKVX; first compound 1 µM
  relative viability: 0.688
NCI-H2085; first compound 0.01 µM
  relative viability: 1.11
NCI-H2085; first compound 0.03162 µM
  relative viability: 1.14
NCI-H2085; first compound 0.1 µM
  relative viability: 1.11
NCI-H2085; first compound 0.3162 µM
  relative viability: 1.14
NCI-H2085; first compound 1 µM
  relative viability: 0.887
LU99A; first compound 0.01 µM
  relative viability: 1.09
LU99A; first compound 0.03162 µM
  relative viability: 1.24
LU99A; first compound 0.1 µM
  relative viability: 1.25
LU99A; first compound 0.3162 µM
  relative viability: 0.867
LU99A; first compound 1 µM
  relative viability: 0.402
NCI-H2023; first compound 0.01 µM
  relative viability: 0.82
NCI-H2023; first compound 0.03162 µM
  relative viability: 0.904
NCI-H2023; first compound 0.1 µM
  relative viability: 0.465
NCI-H2023; first compound 0.3162 µM
  relative viability: 0.283
NCI-H2023; first compound 1 µM
  relative viability: 0.104
HCC-44; first compound 0.01 µM
  relative viability: 0.797
HCC-44; first compound 0.03162 µM
  relative viability: 0.804
HCC-44; first compound 0.1 µM
  relative viability: 0.919
HCC-44; first compound 0.3162 µM
  relative viability: 0.705
HCC-44; first compound 1 µM
  relative viability: 0.862
NCI-H838; first compound 0.01 µM
  relative viability: 0.773
NCI-H838; first compound 0.03162 µM
  relative viability: 0.814
NCI-H838; first compound 0.1 µM
  relative viability: 0.715
NCI-H838; first compound 0.3162 µM
  relative viability: 0.724
NCI-H838; first compound 1 µM
  relative viability: 0.303
NCI-H1755; first compound 0.01 µM
  relative viability: 0.919
NCI-H1755; first compound 0.03162 µM
  relative viability: 1.03
NCI-H1755; first compound 0.1 µM
  relative viability: 1.05
NCI-H1755; first compound 0.3162 µM
  relative viability: 0.926
NCI-H1755; first compound 1 µM
  relative viability: 0.384
LOU-NH91; first compound 0.01 µM
  relative viability: 0.558
LOU-NH91; first compound 0.03162 µM
  relative viability: 0.462
LOU-NH91; first compound 0.1 µM
  relative viability: 0.487
LOU-NH91; first compound 0.3162 µM
  relative viability: 0.548
LOU-NH91; first compound 1 µM
  relative viability: 0.522
NCI-H460; first compound 0.01 µM
  relative viability: 1.18
NCI-H460; first compound 0.03162 µM
  relative viability: 1.04
NCI-H460; first compound 0.1 µM
  relative viability: 1.18
NCI-H460; first compound 0.3162 µM
  relative viability: 0.88
NCI-H460; first compound 1 µM
  relative viability: 0.0988
